Laboratory results: US9856225B2, “Substituted phenazines as antimicrobial agents” (University of Florida Research Foundation, Incorporated, priority 2013, dated 2018)
Values after ≈ are worked out from the molar mass of the structure shown. Values joined by “and” are separate entries in the source; they are usually repeats but may differ in a detail not shown here. Equal entries are not always repeated.

How the values were obtained:
[1] = Hydrolysis stability in sterile water; type: physicochemical; details: 24 hours at 37° C., static, TLC and NMR
Experimental: Compound storage. Solid stocks of the compounds described herein were stored at −80° C. in vials sealed with PARAFILM. Between 2.0 and 4.5 milligrams of each compound was weighed out, and a 10 mM DMSO stock solution of each compound were prepared. DMSO stock solutions were stored at room temperature in the dark (e.g., wrapped in aluminum foil). At this concentration, a few compounds required gentle heating to completely solubilize. DMSO stock solutions were not subjected to any freeze-thaw cycles to prevent compound breakdown. The compounds were stable in DMSO for several weeks under these mild storage conditions, with the exception of pyocyanin. Pyocyanin is unstable in DMSO at room temperature after one day. […] DMSO stock solutions of about 2 milligrams of pyocyanin were made fresh each day. The hydrolysis stability of select compounds was also tested, e.g., by subjecting these compounds to conditions mimicking the biofilm assays described herein. In one set of exemplary experiments, 3.2 to 4.5 mgs of each of compounds 18a, 12a, 23a, and 21 were treated with 1 mL of sterile water to form a mixture. Each of the mixtures was allowed to be incubated for 24 hours at 37° C. under static conditions analogous to the S. aureus biofilm inhibition assays described herein. After 24 hours, each of the mixtures was extracted with dichloromethane and evaluated, using TLC and NMR, for hydrolysis of each of compounds 18a, 12a, 23a, and 21 to compound 11.

[2] = tested on: Staphylococcus epidermidis (ATCC 12228); assay: MIC broth microdilution (CLSI), Luria Broth; type: cell-based; details: for MIC: ATCC12228, Table 1, ATCC 12228, read-out: Staphylococcus epidermidis MIC; for fold more potent than compound 1: from MIC
Procedure, shortened: (§1)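 Two-fold serial dilutions (0.10–100 μM, eleven points) in Luria Broth, each well inoculated with 10^5 cells from log-phase culture (OD600 0.5), per CLSI broth microdilution. DMSO vehicle up to 1% v/v as negative control; kanamycin positive control for the staphylococci.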

[3] = tested on: Pseudomonas aeruginosa (PAO1); assay: MIC broth microdilution (CLSI), Luria Broth; type: cell-based; details: Table 1, PAO1, read-out: Pseudomonas aeruginosa MIC
Procedure, shortened: as §1

MRSA-2 biofilms = assay: MRSA-2 biofilm dispersion assay; type: cell-based; details: Staphylococcus aureus, 24 h, read-out: MRSA-2 biofilm dispersion EC50
MRSA-2 = assay: MIC against MRSA-2; type: cell-based; details: Staphylococcus aureus, read-out: MIC against MRSA-2
Experimental: Antibiotic Susceptibility Tests (MIC Assay Protocol). The minimum inhibitory concentration (MIC) for each compound described herein was determined by the broth microdilution method as recommended by the Clinical and Laboratory Standards Institute (CLSI) (Clinical and Laboratory Standards Institute. 2009. Methods for dilution antimicrobial susceptibility tests for bacteria that grow aerobically; approved standard, eighth edition (M7-A8)). In a 96-well plate, eleven two-fold serial dilutions of each compound were made in a final volume of 100 μL Luria Broth (one column served as a blank; see the MIC assay described herein). Each well was inoculated with 10^5 bacterial cells at the initial time of incubation, prepared from a fresh log phase culture (OD600 of 0.5). […] The concentration range tested for each compound during this study was 0.10 to 100 μM. DMSO served as the vehicle and negative control in each microdilution MIC assay. DMSO was serially diluted at the same concentration as the compounds with a top concentration of 1% v/v. Bacterial strains used: Staphylococcus aureus (ATCC 25923), Staphylococcus epidermidis (ATCC 12228) and Pseudomonas aeruginosa (PAO1). […]
Vancomycin's activity against MRSA-2. Vancomycin was also evaluated against MRSA-2 since vancomycin has been considered to be the drug of last resort against MRSA infections.

SMILES | stability to hydrolysis (to compound 11) [1] | MIC [2] | fold more potent than compound 1 [2] [fold] | also measured
Oc1c(Br)cc(Br)c2nc3ccccc3nc12 [Compound 11, 2,4-Dibromophenazin-1-ol] | – | 0.78 µM to 1.56 µM and 0.28 µg/mL to 0.55 µg/mL | 32 | MIC [3]: > 100 µM; EC50 (MRSA-2 biofilms): 3.53 µM; MIC (MRSA-2): 1.56 µM (≈ 0.552 µg/mL)
CC(=O)Oc1c(Br)cc(Br)c2nc3ccccc3nc12 [Compound 21, 2,4-Dibromophenazin-1-yl acetate] | stable to hydrolysis | 0.78 µM and 0.31 µg/mL | 64 | –
O=C(Oc1c(Br)cc(Br)c2nc3ccccc3nc12)c1ccccc1 [Compound 23, 2,4-Dibromophenazin-1-yl benzoate] | – | 1.56 µM and 0.72 µg/mL | – | –

Continued, in another order:

stability to hydrolysis (to compound 11) [1] | SMILES | MIC [2] | fold more potent than compound 1 [2] [fold] | also measured
stable to hydrolysis | Cc1ccc(C(=O)Oc2c(Br)cc(Br)c3nc4ccccc4nc23)cc1 [Compound 18a] | – | – | –
stable to hydrolysis | O=C(Oc1c(Br)cc(Br)c2nc3ccccc3nc12)c1ccco1 [Compound 23a] | – | – | –
stable to hydrolysis | O=C(Oc1c(Br)cc(Br)c2nc3ccccc3nc12)c1ccc(Br)cc1 [Compound 12a] | – | – | –
